Key:
[1] = tested on: SS RBC adhesion to TNF-α-activated HUVECs; assay: Flow chamber adhesion of SS RBCs to TNF-α-activated HUVECs; format: cell-based, human; conditions: for effect on SS RBC adhesion to TNF-α-activated HUVECs: SS RBCs treated with MEK inhibitor (10 μM; RDEA119 1 and 10 μM)
Method: Cells were then washed three times with 5 ml PBS with Ca^2+ and Mg^2+. Prior to adhesion assays, washed treated SS RBCs were labeled with PKH 26 red fluorescent cell linker kit (Sigma-Aldrich, St. Louis, Mo.), following the manufacturer's instructions.
Graduated height flow chambers were used to quantify adhesion of RBCs to HUVECs substantially as previously described in detail.^4, 20 In some adhesion studies, slides coated with HUVECs were treated with human recombinant TNF-α at 10 ng/ml for 4 hours. Slides coated with HUVECs treated or not with TNF-α were then washed three times with 20 ml HBSS with 1.26 mM Ca^2+, 0.9 mM Mg^2+ (Gibco, Grand Island, N.Y.) warmed previously to 37° C. and then fit into a variable height flow chamber. The flow chamber was mounted on the stage of an inverted phase contrast microscope (Diaphot, Nikon Inc., Melville, N.Y.) connected to a thermoplate (Tokai Hit Co., Ltd., Japan) set at 37° C. Cells were observed using a video camera (RS photometrics,) attached to the microscope and connected to a Macintosh G4 computer. RBC (3 ml) suspended at 0.2% (vol/vol) in HBSS with Ca^2+, Mg^2+ were infused into the flow chamber and allowed to adhere to the slide for 10 min without flow. Before exposure to flow, a minimum of three fields at each of seven different locations along a line oriented normal to future flow were examined for the total number of fluorescent cells. Fluid flow (HBSS with Ca^2+, Mg^2+) was then started using a calibrated syringe pump. After exposure to flow, the fields were again examined and the number of adherent cells counted. The fraction of adherent cells was presented as (number of cells attached after exposure to flow)/(cells present per field before flow). The wall shear stress was calculated as:
[formula] τw=wall shear stress (dyne/cm^2); Q=volumetric flow rate (cm^3/s); μ is media viscosity, w is the width of the flow channel, and H(x) is the height of the flow chamber as a function of position along the microscope slide. Several investigators have shown that blood flow in small vessels may be continuous, with shear stresses of 1-2 dynes/cm^2, or flow may be intermittent. Our data were obtained using both intermittent and continuous flow conditions.

[2] = tested on: ERK1/2 phosphorylation in SS RBCs; assay: ERK1/2 phosphorylation in SS RBCs, Western blot (phosphoERK normalized to total ERK); format: cell-based, human
Method: Aliquots of packed RBCs were treated with various reagents to affect cAMP signaling or protein phosphorylation. […] Treated RBCs were then washed 5 times with 4 ml PBS with Ca^2+ and Mg^2+. Normal RBCs were used as controls. Prior to adhesion assays, treated RBCs were labeled with PKH 26 red fluorescent cell linker kit (Sigma), following the manufacturer's instructions.
Treated packed RBCs were lysed with hypotonic buffer (5 mM Na2HPO4+1 mM EDTA+0.1% NaN3, pH 8) containing 2 mM phenylmethylsulphonylfluoride (PMSF, Sigma), phosphatase inhibitor cocktail (Sigma) and protease inhibitor cocktail (Sigma). Protein separation by polyacrylamide gel electrophoresis using equal amounts of total RBC membrane ghost proteins per lane, after correcting total protein measurements for residual hemoglobin content, and Western blot^19 using the appropriate Ab were then performed. Mouse 3T3/A31 fibroblast lysate was used as a ERK1/2 positive control for immunoblots. For total ERK1/2, membranes blotted with anti-phosphoERK Ab were stripped and reexposed to Western blotting using anti-ERK1/2 Ab. Bands were analyzed densitometrically using ImageJ software downloaded from the NIH website. PhosphoERK1/2 data were normalized according to total ERK1/2 and are presented as fold change in ERK phosphorylation.

[3] = tested on: ICAM-4 (LW) phosphorylation; assay: 32P labeling, ICAM-4 immunoprecipitation and detection of phosphorylation in SS RBCs; format: cell-based, human; conditions: SS RBCs preincubated with inhibitor
Method: Cells were then washed 4 times. ICAM-4 protein immunoprecipitation, and total and phospho-ICAM-4 detection were performed as previously described in detail.^4 To further confirm that the immunoprecipitates were specific for ICAM-4, anti-ICAM-4 mAb and the negative control immunoglobulin P3 were used to immunoprecipitate ICAM-4 from non-radiolabeled SS RBCs incubated in the presence or absence of epinephrine. Blots were then immunostained with anti-ICAM-4 mAb.

[4] = tested on: human SS RBC adhesion in inflamed venules and vaso-occlusion; assay: Intravital microscopy in TNF-α-treated nude mice infused with human SS RBCs treated ex vivo with MEK inhibitor; conditions: for percentage of venular length occupied by treated SS RBCs: compared to sham
Source text: For some in vivo adhesion studies, packed SS RBCs were fluorescently labeled with the dye Dil (Molecular Probes Inc., Eugene, Oreg.), following the manufacturer's instructions. […] Cell morphology was checked by microscopy.

[5] = tested on: PMN adhesion to non-activated HUVECs; assay: Adhesion to HUVECs of PMNs co-incubated with epinephrine-stimulated SS RBCs; format: cell-based, human; conditions: SS RBCs pre-incubated with inhibitor for 1 hour, then 20 nM epinephrine 1 min
Method: The cells were then washed prior to admixture with fluorescently-labeled native polymorphonuclear cells (PMNs) obtained from healthy donors at a RBC:PMN ratio of 10:1. After co-incubation for 30 minutes at 37° C., cells mixtures were assayed for their ability to adhere to non-activated HUVECs. […] Downregulation of RBC adhesion receptor activity by targeting ERK may not only decrease SS RBC adhesion to the endothelium but also reduce RBC-stimulated leukocyte activation.

[6] = tested on: SS RBC membrane ghost phosphopeptides; assay: Label-free quantitative phosphoproteomic analysis of SS RBC membrane ghosts; format: cell-based, human; conditions: recombinant ERK2 added to U0126-treated SS RBC ghosts
Method: (§1) Ghosted RBCs were spun at 14,000 rpm for 15 min at 4° C. to pellet membranes. Membrane pellets were washed with 1 mL 50 mM ammonium bicarbonate (pH 8.0) with vortexing and were then spun at 14,000 rpm for 30 min at 4° C. The supernatant was then removed and 500 μL of 50 mM ammonium bicarbonate with μL 0.2% acid-labile surfactant (ALS-1) in 50 mM ammonium bicarbonate (pH 8.0) was added. Samples were subjected to probe sonication three-times for 5 sec with cooling on ice between and insoluble material was cleared by centrifugation at 14,000 rpm for 30 mins at 4° C. Samples were normalized to approximately 2 μg/μl following a micro-Bradford assay (Pierce Bioscience), and were reduced with a final concentration of 10 mM dithiothreitol at 80° C. for 20 min. Samples were then alkylated with a final concentration of 20 mM iodoacetamide at room temperature for 45 min and trypsin was added to a final ratio of 1-to-50 (w/w) enzyme-to-protein and allowed to digest at 37° C. for 18 hr. To remove ALS-1, samples were acidified to pH 2.0 with neat TFA, incubated at 60° C. for 2 hrs and spun at 14,000 rpm to remove hydrolyzed ALS-1. Samples were either subjected directly to LC-MS analysis or subjected to a TiO2 based phosphopeptide enriched protocol.
(§2) To enrich for phosphorylated peptides prior to LC-MS analysis, either 1,125 μg and 970 μg of total digested protein from RBC ghosts co-incubated with recombinant active ERK2 experiments and experiments using epinephrine-treated cells, respectively, were brought to near dryness using vacuum centrifugation and then resuspended in 200 μL of 80% acetonitrile, 1% TFA, 50 mg/ml MassPrep Enhancer (pH 2.5) (Waters Corp. Milford, Mass.). Samples were loaded onto an in-house packed TiO2 spin column (Protea Biosciences) with a 562 μg or 485 μg binding capacity for active ERK2 treated or epinephrine treated experiments, respectively. Samples were washed twice with 200 μL 80% acetonitrile, 1% TFA, 50 mg/ml MassPrep Enhancer (pH 2.5) followed by two washes with 200 μL 80% acetonitrile, 1% TFA (pH 2.5). Retained peptides were eluted twice with 100 μL 20% acetonitrile, 5% aqueous ammonia (pH 10.0), acidified to pH 3 with neat formic acid and then brought to dryness using vacuum centrifugation. Prior to LC-MS analysis, each sample was resuspended in 20 μL 2% acetonitrile, 0.1% TFA, 25 mM citric acid (pH 2.5).
Chromatographic separation of phosphopeptide enriched or non-enriched samples was performed on a Waters NanoAquity UPLC equipped with a 1.7 μm BEH130 C1875 μm I.D.×250 mm reversed-phase column. The mobile phase consisted of (A) 0.1% formic acid in water and (B) 0.1% formic acid in acetonitrile. Five μL injections of each sample were trapped for 5 min on a 5 μm Symmetry C18 180 μm I.D.×20 mm column at 20 μl/min in 99.9% A. The analytical column was then switched in-line and the mobile phase was held for 5 min at 5% B before applying a linear elution gradient of 5% B to 40% B or 5% B to 30% B over 90 min at 300 nL/min for ERK2 treated experiments or epinephrine treated experiments, respectively. The analytical column was connected to fused silica PicoTip emitter (New Objective, Cambridge, Mass.) with a 10 μm tip orifice and coupled to the mass spectrometer through an electrospray interface.
MS data from each phosphopeptide enriched sample was acquired on a Thermo LTQ-Orbitrap XL mass spectrometer operating in positive-ion mode with an electrospray voltage of 2.0 kV with real-time lockmass correction on ambiant polycyclodimethylsiloxane (m/z 445.120025) enabled. The instrument was set to acquire a precursor MS scan from m/z 400-2000 with r=60,000 at m/z 400 and a target AGC setting of 1e6 ions. Each sample was analyzed four-times, one of which was used for additional qualitative identifications only and was not included in the quantitative analysis, with product ions above a threshold of 500 counts were acquired for the top 5 most intense ions in the linear ion trap. […]

[7] = tested on: AA RBC membrane ghost phosphopeptides; assay: Label-free quantitative phosphoproteomic analysis of normal (AA) RBC membrane ghosts; format: cell-based, human
Method: as §1
as §2, with “Prior to LC-MS analysis, each sample was resuspended in 20 μL 2% acetonitrile, 0.1% TFA, 25 mM citric acid (pH 2.5).” left out
MS data from each phosphopeptide enriched sample was acquired on a Thermo LTQ-Orbitrap XL mass spectrometer operating in positive-ion mode with an electrospray voltage of 2.0 kV with real-time lockmass correction on ambiant polycyclodimethylsiloxane (m/z 445.120025) enabled. […] Each sample was analyzed four-times, one of which was used for additional qualitative identifications only and was not included in the quantitative analysis, with product ions above a threshold of 500 counts were acquired for the top 5 most intense ions in the linear ion trap. […]

[8] = SS RBCs treated ex vivo with 10 μM inhibitor for 1 hour, n=5

TNF-α
increase in SS RBC adhesion vs non-activated HUVECs ([1]; HUVECs treated with TNF-α, shear stress 2 dynes/cm^2, intermittent flow): 2.6 fold

14-22 amide: PKA-specific inhibitor (PKAI)
effect on epinephrine-induced ERK1/2 phosphorylation ([2]; SS RBCs pre-incubated with inhibitor, then 20 nM epinephrine 1 min): completely blocked
effect on basal ERK phosphorylation ([2]; SS RBCs, 30 nM): did not significantly decrease
effect on combined effect of epinephrine and SPI on ICAM-4 phosphorylation [3]: significantly decreased

Pertussis toxin [PTx]
increase in basal phosphorylation of ERK1/2 ([2]; SS RBCs, 1 μg/ml PTx alone): 2.04±0.1 fold
increase in basal phosphorylation of ERK1/2 ([2]; SS RBCs, 2 μg/ml PTx alone): 2.53±0.11 fold

COc1cc(F)c(F)c(Nc2ccc(I)cc2F)c1NS(=O)(=O)C1(C[C@H](O)CO)CC1 [RDEA119]
human SS RBC adhesion in inflamed venules [4, 8]: dramatically decreased
vessel obstruction [4, 8]: prevented vessel obstruction
percentage of venular length occupied by treated SS RBCs ([4]; vessels 25 μm in diameter): significantly decreased
percentage of venular length occupied by treated SS RBCs ([4]; vessels with a diameter >25 μm): significantly decreased
ability of epinephrine-activated SS RBCs to promote neutrophil (PMN) adhesion to HUVECs [5]: significantly decreased
effect on SS RBC adhesion to TNF-α-activated HUVECs [1]: significantly abolished

Cn1cnc2c(F)c(Nc3ccc(Br)cc3Cl)c(C(=O)NOCCO)cc21 [AZD6244]
ability of epinephrine-activated SS RBCs to promote neutrophil (PMN) adhesion to HUVECs [5]: significantly decreased
effect on SS RBC adhesion to TNF-α-activated HUVECs [1]: significantly abolished

COc1c(C=O)c(O)cc2c1C(=O)c1ccccc1C2=O [Damnacanthal]
effect on PTx-induced ERK phosphorylation ([2]; SS RBCs, 2 μg/ml PTx): did not abrogate

CC(=O)Nc1cccc(-n2c(=O)n(C3CC3)c(=O)c3c(Nc4ccc(I)cc4F)n(C)c(=O)c(C)c32)c1 [GSK1120212]
ability of epinephrine-activated SS RBCs to promote neutrophil (PMN) adhesion to HUVECs [5]: significantly decreased
effect on SS RBC adhesion to TNF-α-activated HUVECs [1]: significantly abolished

ERK2: commercial recombinant active human ERK2 (Sigma) added to RBC membrane ghosts
change of Ser540/Ser542 doubly phosphorylated peptide within protein 4.1 [6]: +1.7 fold
increase of Ser540/Ser542 doubly phosphorylated peptide within protein 4.1 ([7]; recombinant ERK2 added to U0126-treated AA RBC ghosts): 1.7 fold
increase of Ser540/Ser542 doubly phosphorylated peptide within protein 4.1 ([7]; recombinant ERK2 added to untreated AA RBC ghosts): 2.1 fold
